Measurements from patent US11952385B1, “12-bromo-2,16-dioxa-9,9,18,18-tetramethylpentacyclo[7.7.5.0 1, 21.0 3,8.0 10,15]henicosa3(8),10,12,14-tetraene-7,20-dione as an antimicrobial compound” (KING FAISAL UNIVERSITY, priority 2023, dated 2024).

Tests used:
Type in all cases: cell-based
Conditions in all cases: after 10, 20, 40 and 60 minutes at all dilutions 1:100, 1:200, 1:400, and 1:800
Staphylococcus aureus = assay: Antimicrobial activity by agar dilution, St. Aereus
Experimental: (§1) The antibacterial properties of the synthesized compound (12-bromo-2,16-dioxa-9,9,18,18-tetramethylpentacyclo[7.7.5.0^1,21.0^3,8.0^10,15]henicosa3(8),10,12,14-tetraene-7,20-dione) were studied by the method of agar dilution. Test solutions of each compound was prepared in concentration of 1% using dimethylformamide as a solvent. Then they were diluted in physiological solution to obtain the final experimental dilutions of 1:100, 1:200, 1:400, and 1:800. The effect of these substances were compared with furacillin in a controllable study. The testing microbes used were gram positive bacteria Staphylococcus aureus, gram negative bacteria Pseudomonas aeruginosa, Escherichia coli, and Candida albicans fungus. The experiments used for this survey were meat-pentonlu agar (EPA) for cultivation of bacteria and Saburo environment for fungi. Each experiment used 1 mL of test solution on each plate for 500 minutes. Two drops of emulsified with microbes feel were added. All experimental samples were taken from the agar after 10, 20, 40, 60 minutes in the environment on the basis of Patrk planted. Bacteria were cultivated at a temperature of 37° C. for 1 day and the mushroom was kept in a thermostat for 2 hours at a temperature of 28° C. Then results were checked. […]

Pseudomonas aeruginosa = assay: Antimicrobial activity by agar dilution, Ps. aeruginosa
Experimental: as §1

Candida albicans = assay: Antimicrobial (antifungal) activity by agar dilution, Candida albicans
Experimental: as §1

Escherichia coli = assay: Antimicrobial activity by agar dilution, E. Coli
Experimental: as §1

Measured: inhibition activity compared with the inhibition activity of Furacilin

CC1(C)CC(=O)C2=C(C1)OC13CC(C)(C)CC(=O)C1C2c1cc(Br)ccc1O3 (stereo not shown) [12-bromo-2,16-dioxa-9,9,18,18-tetramethylpentacyclo[7.7.5.0^1,21.0^3,8.0^10,15]henicosa3(8),10,12,14-tetraene-7,20-dione]
higher inhibition activity: all assays above
